Experimental data: PMC7794376 (Nature Communications, 2021)
Converted amounts (≈) assume the structure as drawn. Like-named read-outs stand apart in the source and are kept apart here.

Columns and labels:
MtbCoaBC [1] = molecular target: T1, MtbCoaBC (Mycobacterium tuberculosis, UniProt P9WNZ1); test: biochemical; type: biochemical; conditions: for activity at 0.03125 µM / activity at 0.0625 µM / activity at 0.25 µM / activity at 0.5 µM / activity at 1 µM / activity at 2 µM: relative to average DMSO CT; for Activity R1 / Activity R3: slope of absorbance at 360 nm vs time (s)
T1 sequence (P9WNZ1 whole entry): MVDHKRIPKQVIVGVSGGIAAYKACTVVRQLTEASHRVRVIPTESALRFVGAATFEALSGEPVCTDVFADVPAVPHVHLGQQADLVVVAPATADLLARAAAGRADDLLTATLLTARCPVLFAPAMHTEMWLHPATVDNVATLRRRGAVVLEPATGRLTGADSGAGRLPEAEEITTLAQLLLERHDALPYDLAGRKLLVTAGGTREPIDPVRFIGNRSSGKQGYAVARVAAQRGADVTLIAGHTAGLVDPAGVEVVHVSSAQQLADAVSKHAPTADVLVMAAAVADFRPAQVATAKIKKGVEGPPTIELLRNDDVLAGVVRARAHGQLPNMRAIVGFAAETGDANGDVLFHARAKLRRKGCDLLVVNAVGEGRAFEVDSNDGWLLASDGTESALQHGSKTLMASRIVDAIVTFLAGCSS

M. tuberculosis H37Rv = test: MIC determination in different media; type: cell-based; conditions: Mycobacterium tuberculosis, read-out: Minimum inhibitory concentration (MIC)
MtbCoaBC [2] = molecular target: T1, MtbCoaBC; test: High-throughput end-point pyrophosphate quantification assay (Biomol Green); type: biochemical; conditions: MtbCoaB activity; end-point, 2 µM CTP, 40 µM L-cysteine, 30 µM PPA; read-out: IC50 biomol green assay

## O=c1cc(-c2ccc(O)cc2)oc2c(O)c(O)ccc12 [2e]
MtbCoaBC [1]; 0.03125 uM 2e, replicate R1, read-out: Inhibition % R1
  inhibition at 0.03125 µM: 5.66%
MtbCoaBC [1]; 0.03125 uM 2e, replicate R1, read-out: Activity % R1
  activity at 0.03125 µM: 94.3%
MtbCoaBC [1]; 0.03125 uM 2e, replicate R1
  Activity R1: 0.0001715
MtbCoaBC [1]; 0.03125 uM 2e, replicate R2, read-out: Inhibition % R2
  inhibition at 0.03125 µM: 2.73%
MtbCoaBC [1]; 0.03125 uM 2e, replicate R2, read-out: Activity % R2
  activity at 0.03125 µM: 97.3%
MtbCoaBC [1]; 0.03125 uM 2e, replicate R3, read-out: Inhibition % R3
  inhibition at 0.03125 µM: 8.32%
MtbCoaBC [1]; 0.03125 uM 2e, replicate R3, read-out: Activity % R3
  activity at 0.03125 µM: 91.7%
MtbCoaBC [1]; 0.03125 uM 2e, replicate R3
  Activity R3: 0.0001667
MtbCoaBC [1]; 0.0625 uM 2e, replicate R1, read-out: Inhibition % R1
  inhibition at 0.0625 µM: 10.7%
MtbCoaBC [1]; 0.0625 uM 2e, replicate R1, read-out: Activity % R1
  activity at 0.0625 µM: 89.3%
MtbCoaBC [1]; 0.0625 uM 2e, replicate R1
  Activity R1: 0.0001624
MtbCoaBC [1]; 0.0625 uM 2e, replicate R2, read-out: Inhibition % R2
  inhibition at 0.0625 µM: 12.6%
MtbCoaBC [1]; 0.0625 uM 2e, replicate R2, read-out: Activity % R2
  activity at 0.0625 µM: 87.4%
MtbCoaBC [1]; 0.0625 uM 2e, replicate R3, read-out: Inhibition % R3
  inhibition at 0.0625 µM: 12.3%
MtbCoaBC [1]; 0.0625 uM 2e, replicate R3, read-out: Activity % R3
  activity at 0.0625 µM: 87.7%
MtbCoaBC [1]; 0.0625 uM 2e, replicate R3
  Activity R3: 0.0001594
MtbCoaBC [1]; 0.25 uM 2e, replicate R1, read-out: Inhibition % R1
  inhibition at 0.25 µM: 38.7%
MtbCoaBC [1]; 0.25 uM 2e, replicate R1, read-out: Activity % R1
  activity at 0.25 µM: 61.3%
MtbCoaBC [1]; 0.25 uM 2e, replicate R1
  Activity R1: 0.0001114
MtbCoaBC [1]; 0.25 uM 2e, replicate R2, read-out: Inhibition % R2
  inhibition at 0.25 µM: 33.5%
MtbCoaBC [1]; 0.25 uM 2e, replicate R2, read-out: Activity % R2
  activity at 0.25 µM: 66.5%
MtbCoaBC [1]; 0.25 uM 2e, replicate R3, read-out: Inhibition % R3
  inhibition at 0.25 µM: 37.4%
MtbCoaBC [1]; 0.25 uM 2e, replicate R3, read-out: Activity % R3
  activity at 0.25 µM: 62.6%
MtbCoaBC [1]; 0.25 uM 2e, replicate R3
  Activity R3: 0.0001138
MtbCoaBC [1]; 0.5 uM 2e, replicate R1, read-out: Inhibition % R1
  inhibition at 0.5 µM: 54.7%
MtbCoaBC [1]; 0.5 uM 2e, replicate R1, read-out: Activity % R1
  activity at 0.5 µM: 45.3%
MtbCoaBC [1]; 0.5 uM 2e, replicate R1
  Activity R1: 0.000082371
MtbCoaBC [1]; 0.5 uM 2e, replicate R2, read-out: Inhibition % R2
  inhibition at 0.5 µM: 61.3%
MtbCoaBC [1]; 0.5 uM 2e, replicate R2, read-out: Activity % R2
  activity at 0.5 µM: 38.7%
MtbCoaBC [1]; 0.5 uM 2e, replicate R3, read-out: Inhibition % R3
  inhibition at 0.5 µM: 57.9%
MtbCoaBC [1]; 0.5 uM 2e, replicate R3, read-out: Activity % R3
  activity at 0.5 µM: 42.1%
MtbCoaBC [1]; 0.5 uM 2e, replicate R3
  Activity R3: 0.000076593
MtbCoaBC [1]; 1 uM 2e, replicate R1, read-out: Inhibition % R1
  inhibition at 1 µM: 69.6%
MtbCoaBC [1]; 1 uM 2e, replicate R1, read-out: Activity % R1
  activity at 1 µM: 30.4%
MtbCoaBC [1]; 1 uM 2e, replicate R1
  Activity R1: 0.000055348
MtbCoaBC [1]; 1 uM 2e, replicate R2, read-out: Inhibition % R2
  inhibition at 1 µM: 78.2%
MtbCoaBC [1]; 1 uM 2e, replicate R2, read-out: Activity % R2
  activity at 1 µM: 21.8%
MtbCoaBC [1]; 1 uM 2e, replicate R3, read-out: Inhibition % R3
  inhibition at 1 µM: 75.2%
MtbCoaBC [1]; 1 uM 2e, replicate R3, read-out: Activity % R3
  activity at 1 µM: 24.8%
MtbCoaBC [1]; 1 uM 2e, replicate R3
  Activity R3: 0.000045005
MtbCoaBC [1]; 2 uM 2e, replicate R1, read-out: Inhibition % R1
  inhibition at 2 µM: 96.5%
MtbCoaBC [1]; 2 uM 2e, replicate R1, read-out: Activity % R1
  activity at 2 µM: 3.46%
MtbCoaBC [1]; 2 uM 2e, replicate R1
  Activity R1: 0.000006285
MtbCoaBC [1]; 2 uM 2e, replicate R2, read-out: Inhibition % R2
  inhibition at 2 µM: 91.3%
MtbCoaBC [1]; 2 uM 2e, replicate R2, read-out: Activity % R2
  activity at 2 µM: 8.65%
MtbCoaBC [1]; 2 uM 2e, replicate R3, read-out: Inhibition % R3
  inhibition at 2 µM: 93%
MtbCoaBC [1]; 2 uM 2e, replicate R3, read-out: Activity % R3
  activity at 2 µM: 6.96%
MtbCoaBC [1]; 2 uM 2e, replicate R3
  Activity R3: 0.000012661
MtbCoaBC [1]; read-out: IC50 EnzChek MtbCoaBC
  IC50: 3 ± 0.2 µM
M. tuberculosis H37Rv; 7H9/ADC/Glycerol
  MIC: > 250 µM
M. tuberculosis H37Rv; GAST/Fe
  MIC: 125 µM (≈ 33.8 µg/mL)
MtbCoaBC [2]
  IC50: 2200 nM
